Measurements from PubChem BioAssay AID330 (DTP/NCI, 2004).
“And” between values parts separate entries of the source, which are not always exact repeats. Identical values can stand only once. Toxic doses and inconclusive results are not listed. Square brackets hold non-standard residues; d marks the D form. Peptide text beside a SMILES is read from it. * marks the point of attachment. ξ: configuration not given here. ξF = NC(Cc1ccccc1)C(=O)O; Cbz = O=C(OCc1ccccc1)*

Tested on: P388 leukemia ip, CD2F1 mice, survival T/C
Assay: NCI In Vivo Anticancer Drug Screen. Data for tumor model P388 Leukemia (intraperitoneal) in CD2F1 (CDF1) mice
Details: endpoint: median survival time, higher = longer survival
How it was run: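 Mice carrying the transplanted tumor received test compound or vehicle. Survival was recorded in each group, and the value is the treated-group measurement divided by that of the vehicle-treated control group.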

[1] = dose: 50.0 mg/kg/injection, schedule: Q01DX005 (ip), vehicle: Klucel (hydroxypropylcellulose) (HPC)
[2] = dose: 100.0 mg/kg/injection, schedule: Q01DX005 (ip), vehicle: Klucel (hydroxypropylcellulose) (HPC)
[3] = dose: 200.0 mg/kg/injection, schedule: Q01DX005 (ip), vehicle: Klucel (hydroxypropylcellulose) (HPC)
[4] = dose: 60.0 mg/kg/injection, schedule: Q01DX005 (ip), vehicle: Klucel (hydroxypropylcellulose) (HPC)
[5] = dose: 120.0 mg/kg/injection, schedule: Q01DX005 (ip), vehicle: Klucel (hydroxypropylcellulose) (HPC)
[6] = dose: 240.0 mg/kg/injection, schedule: Q01DX005 (ip), vehicle: Klucel (hydroxypropylcellulose) (HPC)
[7] = dose: 60.0 mg/kg/injection, schedule: Q01DX005 (ip), vehicle: saline with Tween-80
[8] = dose: 120.0 mg/kg/injection, schedule: Q01DX005 (ip), vehicle: saline with Tween-80
[9] = dose: 240.0 mg/kg/injection, schedule: Q01DX005 (ip), vehicle: saline with Tween-80
[10] = dose: 50.0 mg/kg/injection, schedule: Q01DX005 (ip), vehicle: saline with Tween-80
[11] = dose: 100.0 mg/kg/injection, schedule: Q01DX005 (ip), vehicle: saline with Tween-80
[12] = dose: 200.0 mg/kg/injection, schedule: Q01DX005 (ip), vehicle: saline with Tween-80
[13] = dose: 100.0 mg/kg/injection, schedule: Q04DX003 (ip), vehicle: Klucel (hydroxypropylcellulose) (HPC)
[14] = dose: 200.0 mg/kg/injection, schedule: Q04DX003 (ip), vehicle: Klucel (hydroxypropylcellulose) (HPC)
[15] = dose: 400.0 mg/kg/injection, schedule: Q04DX003 (ip), vehicle: Klucel (hydroxypropylcellulose) (HPC)
[16] = dose: 50.0 mg/kg/injection, schedule: Q01DX009 (ip), vehicle: saline with Tween-80

Compound: O=C1CCCCC1C1=CCCCC1 (centres undefined)
- T/C (dose: 50.0 mg/kg/injection, schedule: Q01DX009 (ip), vehicle: Klucel (hydroxypropylcellulose) (HPC)): 109 % of control
- T/C (dose: 100.0 mg/kg/injection, schedule: Q01DX009 (ip), vehicle: Klucel (hydroxypropylcellulose) (HPC)): 95 % of control
- T/C (dose: 200.0 mg/kg/injection, schedule: Q01DX009 (ip), vehicle: Klucel (hydroxypropylcellulose) (HPC)): 100 % of control
- T/C (dose: 400.0 mg/kg/injection, schedule: Q01DX009 (ip), vehicle: Klucel (hydroxypropylcellulose) (HPC)): 92 % of control

Compound: CCC12OCC(C)(C)N1OC(=O)N2c1ccccc1 (centres undefined)
- T/C [1]: 96 % of control
- T/C [2]: 96 % of control
- T/C [3]: 97 % of control

Compound: COc1ccc2c(c1)C13C(=O)OC4(C)OC(C)(CC41)C3C2=O (centres undefined)
- T/C (dose: 100.0 mg/kg/injection, schedule: Q01DX001 (ip), vehicle: Klucel (hydroxypropylcellulose) (HPC)): 98 % of control
- T/C (dose: 200.0 mg/kg/injection, schedule: Q01DX001 (ip), vehicle: Klucel (hydroxypropylcellulose) (HPC)): 104 % of control
- T/C (dose: 400.0 mg/kg/injection, schedule: Q01DX001 (ip), vehicle: Klucel (hydroxypropylcellulose) (HPC)): 95 % of control

Compound: CC1OC(OCc2ccc(-c3ccccc3)cc2)CC(N)C1O (centres undefined)
- T/C (dose: 1.56 mg/kg/injection, schedule: Q01DX009 (ip), vehicle: water): 99 % of control
- T/C (dose: 3.13 mg/kg/injection, schedule: Q01DX009 (ip), vehicle: water): 104 % of control
- T/C (dose: 6.25 mg/kg/injection, schedule: Q01DX009 (ip), vehicle: water): 107 % of control
- T/C (dose: 12.5 mg/kg/injection, schedule: Q01DX009 (ip), vehicle: water): 108 % of control
- T/C (dose: 25.0 mg/kg/injection, schedule: Q01DX009 (ip), vehicle: water): 98 % of control

Compound: COc1cc([Se]c2ccccc2)ccc1N(C)C
- T/C (dose: 30.0 mg/kg/injection, schedule: Q01DX005 (ip), vehicle: Klucel (hydroxypropylcellulose) (HPC)): 101 % of control
- T/C [4]: 107 % of control
- T/C [5]: 100 % of control
- T/C [6]: 113 % of control

Compound: O=C(NC1COB(c2cc(C(F)(F)F)cc(C(F)(F)F)c2)OC1c1ccc([N+](=O)[O-])cc1)C(Cl)Cl (centres undefined)
- T/C [4]: 100 % of control
- T/C [5]: 100 % of control
- T/C [6]: 99 % of control

Compound: C/C(C(=O)NC1CC1)=C(\C)c1ccc(Cl)cc1
- T/C (dose: 50.0 mg/kg/injection, schedule: Q04DX002 (ip), vehicle: Klucel (hydroxypropylcellulose) (HPC)): 100 % of control
- T/C (dose: 100.0 mg/kg/injection, schedule: Q04DX002 (ip), vehicle: Klucel (hydroxypropylcellulose) (HPC)): 103 % of control
- T/C (dose: 200.0 mg/kg/injection, schedule: Q04DX002 (ip), vehicle: Klucel (hydroxypropylcellulose) (HPC)): 102 % of control

Compound: CCC1(c2cccc(C=O)c2)CCCCN(C)C1 (centres undefined)
- T/C (dose: 12.5 mg/kg/injection, schedule: Q01DX005 (ip), vehicle: saline): 99 % of control
- T/C (dose: 25.0 mg/kg/injection, schedule: Q01DX005 (ip), vehicle: saline): 97 % of control
- T/C (dose: 50.0 mg/kg/injection, schedule: Q01DX005 (ip), vehicle: saline): 97 % of control

Compound: CC(=O)Nc1nc(C)c(CCCNS(=O)(=O)c2ccc([N+](=O)[O-])cc2)c(=O)[nH]1
- T/C (dose: 15.0 mg/kg/injection, schedule: Q01DX005 (ip), vehicle: saline with Tween-80): 100 % of control
- T/C (dose: 30.0 mg/kg/injection, schedule: Q01DX005 (ip), vehicle: saline with Tween-80): 101 % of control
- T/C [7]: 93 % of control and 95 % of control

Compound: CC(C)OC(CCC#N)c1ccc(Cl)cc1 (centres undefined)
- T/C (dose: 50.0 mg/kg/injection, schedule: Q04DX003 (ip), vehicle: other): 105 % of control
- T/C (dose: 100.0 mg/kg/injection, schedule: Q04DX003 (ip), vehicle: other): 114 % of control
- T/C (dose: 200.0 mg/kg/injection, schedule: Q04DX003 (ip), vehicle: other): 99 % of control

Compound: COc1cc(C2(O)c3cc4c(cc3CCN2C)OCO4)cc(OC)c1OC (centres undefined)
- T/C [1]: 97 % of control
- T/C [2]: 96 % of control
- T/C [3]: 90 % of control

Compound: COC(=O)c1c[nH]c(=O)[nH]c1=O
- T/C [7]: 94 % of control
- T/C [8]: 105 % of control
- T/C [9]: 112 % of control

Compound: CCCCCCCCCCCCCCCC[N+](C)(C)CCOS(C)(=O)=O
- T/C (dose: 12.5 mg/kg/injection, schedule: Q01DX009 (ip), vehicle: saline with Tween-80): 110 % of control
- T/C (dose: 25.0 mg/kg/injection, schedule: Q01DX009 (ip), vehicle: saline with Tween-80): 116 % of control

Compound: CC1=C(c2ccccc2)OS(=O)(=O)CC1N(C)C (centres undefined)
- T/C [10]: 99 % of control
- T/C [11]: 99 % of control
- T/C [12]: 98 % of control

Compound: C=CC(OC(C)=O)OC(C)=O
- T/C (dose: 8.0 mg/kg/injection, schedule: Q01DX009 (ip), vehicle: saline): 109 % of control
- T/C (dose: 12.0 mg/kg/injection, schedule: Q01DX009 (ip), vehicle: saline): 118 % of control
- T/C (dose: 18.0 mg/kg/injection, schedule: Q01DX009 (ip), vehicle: saline): 109 % of control

Compound: CCOC(=O)Cc1c[nH]c2ccc(N(CCCl)CCCl)cc12
- T/C (dose: 5.0 mg/kg/injection, schedule: Q04DX003 (ip), vehicle: Klucel (hydroxypropylcellulose) (HPC)): 204 % of control
- T/C (dose: 8.0 mg/kg/injection, schedule: Q04DX003 (ip), vehicle: Klucel (hydroxypropylcellulose) (HPC)): 245 % of control
- T/C (dose: 12.5 mg/kg/injection, schedule: Q04DX003 (ip), vehicle: Klucel (hydroxypropylcellulose) (HPC)): 245 % of control

Compound: CCC12CCCN3CCC4(c5ccc(OC)cc5N(C)C4C(O)(OC(C)=O)C1OC(C)O)C32 (centres undefined)
- T/C [10]: 100 % of control
- T/C [11]: 87 % of control

Compound: COC(=O)C1CC=CCC1C(=O)OC (centres undefined)
- T/C (dose: 100.0 mg/kg/injection, schedule: Q04DX002 (ip), vehicle: saline with Tween-80): 107 % of control
- T/C (dose: 200.0 mg/kg/injection, schedule: Q04DX002 (ip), vehicle: saline with Tween-80): 106 % of control
- T/C (dose: 400.0 mg/kg/injection, schedule: Q04DX002 (ip), vehicle: saline with Tween-80): 100 % of control

Compound: COC(=O)c1c2cccc(C)c2nc2c(C)cccc12
- T/C [10]: 107 % of control
- T/C [11]: 107 % of control
- T/C [12]: 100 % of control

Compound: O=C1CCC(N(Cc2ccccc2)Cc2ccccc2)C(=O)O1 (centres undefined)
- T/C [13]: 112 % of control
- T/C [14]: 109 % of control
- T/C [15]: 100 % of control

Compound: CCOc1cc2cc(CCC(=O)O)c(C)cc2cn1
- T/C (dose: 12.5 mg/kg/injection, schedule: Q01DX009 (ip), vehicle: distilled water + Tween-80): 101 % of control
- T/C (dose: 25.0 mg/kg/injection, schedule: Q01DX009 (ip), vehicle: distilled water + Tween-80): 103 % of control
- T/C (dose: 50.0 mg/kg/injection, schedule: Q01DX009 (ip), vehicle: distilled water + Tween-80): 97 % of control
- T/C (dose: 100.0 mg/kg/injection, schedule: Q01DX009 (ip), vehicle: distilled water + Tween-80): 98 % of control
- T/C (dose: 200.0 mg/kg/injection, schedule: Q01DX009 (ip), vehicle: distilled water + Tween-80): 107 % of control

Compound: O=C(CNC(=O)OCc1ccccc1)NC(Cc1ccccc1)C(=O)O (stereo not drawn) (Cbz-Gly-[ξF]-OH)
- T/C [1]: 105 % of control
- T/C [2]: 100 % of control
- T/C [3]: 104 % of control

Compound: O=C(CBr)Nc1c(Br)cc(Cl)cc1Br
- T/C [16]: 100 % of control
- T/C (dose: 100.0 mg/kg/injection, schedule: Q01DX009 (ip), vehicle: saline with Tween-80): 88 % of control
- T/C (dose: 200.0 mg/kg/injection, schedule: Q01DX009 (ip), vehicle: saline with Tween-80): 100 % of control

Compound: CC1CC(C)(C)C(c2ccccc2)C(=O)O1 (centres undefined)
- T/C [13]: 106 % of control
- T/C [14]: 100 % of control
- T/C [15]: 114 % of control

Compound: CCCN(CCC)c1nc2ccc(NC(=O)OCC)cc2s1
- T/C (dose: 12.5 mg/kg/injection, schedule: Q01DX009 (ip), vehicle: saline): 95 % of control
- T/C (dose: 25.0 mg/kg/injection, schedule: Q01DX009 (ip), vehicle: saline): 100 % of control
- T/C [16]: 101 % of control
- T/C (dose: 50.0 mg/kg/injection, schedule: Q01DX009 (ip), vehicle: saline): 100 % of control

Compound: Cc1cccc(Nc2nnc(Nc3cccc(C)n3)c3ccccc23)n1
- T/C [10]: 95 % of control
- T/C [11]: 91 % of control
- T/C [12]: 92 % of control

Compound: COC(=O)c1cc2ccc1OCC#CC#CCOc1ccc(cc1C(=O)OC)OCC#CC#CCO2
- T/C [7]: 89 % of control
- T/C [8]: 88 % of control
- T/C [9]: 88 % of control

Compound: CC(Cc1ccccc1)N(C)Cc1ccc(-c2ccc(Cl)cc2)o1 (centres undefined)
- T/C [7]: 110 % of control
- T/C [8]: 107 % of control
- T/C [9]: 107 % of control
